Tests used:
Test in all cases: radiometric filter-binding kinase assay, Kinaseprofiler
[1] = tested on: BLK (human), P51451 [M278V]; conditions: compound 10.0 µM; ATP 45 µM
[2] = biological target: CAMK2D (human) (UniProt Q13557); conditions: compound 1.0 µM; ATP 10 µM
[3] = biological target: CAMK2G (human) (UniProt Q13555); conditions: compound 10.0 µM; ATP 10 µM
[4] = biological target: CDK3 CCNE1 (human) (UniProt Q00526+P24864); conditions: ATP 200 µM
[5] = biological target: DAPK2 (human) (UniProt Q9UIK4); conditions: compound 10.0 µM; ATP 10 µM
[6] = biological target: FER (human) (UniProt P16591); conditions: compound 10.0 µM; ATP 70 µM
[7] = biological target: FGR (human) (UniProt P09769); conditions: compound 10.0 µM; ATP 45 µM
[8] = biological target: FYN (human) (UniProt P06241); conditions: compound 10.0 µM; ATP 70 µM
[9] = biological target: GCK (human) (UniProt Q12851); conditions: compound 1.0 µM; ATP 200 µM
[10] = biological target: HIPK3 (human) (UniProt Q9H422); conditions: compound 10.0 µM; ATP 15 µM
[11] = biological target: LYN (human) (UniProt P07948); conditions: compound 10.0 µM; ATP 70 µM
[12] = biological target: MAP2K7 (human) (UniProt O14733); conditions: compound 10.0 µM; ATP 10 µM
[13] = biological target: MAP3K5 (human) (UniProt Q99683); conditions: ATP 200 µM
[14] = biological target: MAP3K7 (human) (UniProt O43318); conditions: ATP 45 µM
Chain of MAP3K7 (human) (O43318 whole entry, looked up): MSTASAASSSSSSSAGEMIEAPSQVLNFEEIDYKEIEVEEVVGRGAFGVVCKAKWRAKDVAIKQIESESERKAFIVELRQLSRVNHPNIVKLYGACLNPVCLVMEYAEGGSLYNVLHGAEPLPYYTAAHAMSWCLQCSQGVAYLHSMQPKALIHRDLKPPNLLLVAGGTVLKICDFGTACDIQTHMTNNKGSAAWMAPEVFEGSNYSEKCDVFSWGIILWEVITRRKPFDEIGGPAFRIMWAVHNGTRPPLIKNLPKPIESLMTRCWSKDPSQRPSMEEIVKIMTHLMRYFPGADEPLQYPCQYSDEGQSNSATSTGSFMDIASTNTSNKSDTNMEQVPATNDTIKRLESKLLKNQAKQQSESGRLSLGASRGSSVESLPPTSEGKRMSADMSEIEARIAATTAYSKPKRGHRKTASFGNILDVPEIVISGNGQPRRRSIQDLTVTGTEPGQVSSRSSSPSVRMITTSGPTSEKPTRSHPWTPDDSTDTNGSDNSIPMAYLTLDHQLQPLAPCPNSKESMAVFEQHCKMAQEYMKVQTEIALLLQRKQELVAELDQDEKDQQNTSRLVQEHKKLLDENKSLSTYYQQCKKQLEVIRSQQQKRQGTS

[15] = biological target: MAPK1 (human) (UniProt P28482); conditions: compound 10.0 µM; ATP 155 µM
[16] = biological target: MAPK10 (human) (UniProt P53779); conditions: ATP 10 µM
Chain of MAPK10 (human) (P53779 whole entry, looked up): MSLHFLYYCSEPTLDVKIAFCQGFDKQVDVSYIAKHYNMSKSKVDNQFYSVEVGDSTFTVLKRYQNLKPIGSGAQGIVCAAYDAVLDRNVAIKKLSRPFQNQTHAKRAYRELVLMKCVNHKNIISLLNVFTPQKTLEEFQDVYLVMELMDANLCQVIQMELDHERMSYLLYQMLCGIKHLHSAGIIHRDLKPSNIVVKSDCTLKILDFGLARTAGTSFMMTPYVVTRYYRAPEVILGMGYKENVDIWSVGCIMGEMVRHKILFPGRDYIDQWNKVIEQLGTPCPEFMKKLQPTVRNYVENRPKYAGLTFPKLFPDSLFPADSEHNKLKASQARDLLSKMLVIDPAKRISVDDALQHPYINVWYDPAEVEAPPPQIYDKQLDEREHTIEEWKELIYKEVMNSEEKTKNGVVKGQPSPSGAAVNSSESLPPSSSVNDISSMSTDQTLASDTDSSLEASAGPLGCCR

[17] = biological target: MAPK8 (human) (UniProt P45983); conditions: ATP 45 µM
Chain of MAPK8 (human) (P45983 whole entry, looked up): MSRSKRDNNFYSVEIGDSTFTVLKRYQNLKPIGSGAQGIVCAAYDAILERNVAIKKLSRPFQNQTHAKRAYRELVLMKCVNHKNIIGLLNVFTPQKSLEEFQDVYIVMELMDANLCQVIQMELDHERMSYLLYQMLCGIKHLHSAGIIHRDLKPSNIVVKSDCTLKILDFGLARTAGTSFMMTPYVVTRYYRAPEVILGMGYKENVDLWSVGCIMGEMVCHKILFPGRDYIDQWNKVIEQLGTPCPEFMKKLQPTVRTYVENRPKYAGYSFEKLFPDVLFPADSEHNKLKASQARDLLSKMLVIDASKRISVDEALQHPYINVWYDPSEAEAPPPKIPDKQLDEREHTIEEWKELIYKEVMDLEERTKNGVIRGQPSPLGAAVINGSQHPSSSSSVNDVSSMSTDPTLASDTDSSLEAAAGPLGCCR

[18] = biological target: MARK2 (human) (UniProt Q7KZI7); conditions: compound 10.0 µM; ATP 15 µM
[19] = biological target: MELK (human) (UniProt Q14680); conditions: compound 10.0 µM; ATP 45 µM
[20] = biological target: MINK1 (human) (UniProt Q8N4C8); conditions: compound 1.0 µM; ATP 185 µM
[21] = biological target: MTOR FKBP1A (human) (UniProt P42345+P62942); conditions: ATP 45 µM
Chain of MTOR FKBP1A (human) (P62942 whole entry, looked up, other chains not shown): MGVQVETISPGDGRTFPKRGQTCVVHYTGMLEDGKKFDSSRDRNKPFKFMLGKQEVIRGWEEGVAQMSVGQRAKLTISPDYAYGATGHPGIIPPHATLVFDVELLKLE

[22] = biological target: NTRK2 (human) (UniProt Q16620); conditions: ATP 90 µM
[23] = biological target: PAK6 (human) (UniProt Q9NQU5); conditions: ATP 10 µM
Chain of PAK6 (human) (Q9NQU5 whole entry, looked up): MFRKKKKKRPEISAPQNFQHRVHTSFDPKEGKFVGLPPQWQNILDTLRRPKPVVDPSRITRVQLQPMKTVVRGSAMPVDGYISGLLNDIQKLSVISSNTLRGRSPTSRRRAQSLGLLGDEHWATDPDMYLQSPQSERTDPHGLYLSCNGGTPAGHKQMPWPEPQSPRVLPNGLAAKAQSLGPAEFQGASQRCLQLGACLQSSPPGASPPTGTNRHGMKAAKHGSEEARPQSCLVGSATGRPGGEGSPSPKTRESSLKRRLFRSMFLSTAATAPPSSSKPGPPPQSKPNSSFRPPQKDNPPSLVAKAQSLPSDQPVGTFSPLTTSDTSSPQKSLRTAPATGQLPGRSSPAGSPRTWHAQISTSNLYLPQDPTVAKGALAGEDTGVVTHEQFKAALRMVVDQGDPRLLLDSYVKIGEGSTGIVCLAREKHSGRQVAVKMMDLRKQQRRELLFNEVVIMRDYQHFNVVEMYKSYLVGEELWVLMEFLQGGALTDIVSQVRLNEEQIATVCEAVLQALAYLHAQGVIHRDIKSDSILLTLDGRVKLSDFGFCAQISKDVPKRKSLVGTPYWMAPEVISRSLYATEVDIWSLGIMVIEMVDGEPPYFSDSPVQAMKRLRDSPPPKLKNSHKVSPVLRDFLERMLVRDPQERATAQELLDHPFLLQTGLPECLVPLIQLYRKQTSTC

[24] = biological target: PRKAA2 PRKAB1 PRKAG1 (human) (UniProt P54619+P54646+Q9Y478); conditions: ATP 45 µM
Chain of PRKAA2 PRKAB1 PRKAG1 (human) (P54619 whole entry, looked up): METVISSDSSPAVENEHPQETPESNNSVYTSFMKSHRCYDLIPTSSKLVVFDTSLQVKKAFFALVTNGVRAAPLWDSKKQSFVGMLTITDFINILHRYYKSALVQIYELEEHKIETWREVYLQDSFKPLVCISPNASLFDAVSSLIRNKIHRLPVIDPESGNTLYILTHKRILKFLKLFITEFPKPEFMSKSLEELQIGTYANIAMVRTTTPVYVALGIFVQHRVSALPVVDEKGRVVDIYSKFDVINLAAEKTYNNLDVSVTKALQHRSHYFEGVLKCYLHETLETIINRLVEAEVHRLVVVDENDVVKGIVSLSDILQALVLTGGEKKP
Chain of PRKAA2 PRKAB1 PRKAG1 (human) (P54646 whole entry, looked up): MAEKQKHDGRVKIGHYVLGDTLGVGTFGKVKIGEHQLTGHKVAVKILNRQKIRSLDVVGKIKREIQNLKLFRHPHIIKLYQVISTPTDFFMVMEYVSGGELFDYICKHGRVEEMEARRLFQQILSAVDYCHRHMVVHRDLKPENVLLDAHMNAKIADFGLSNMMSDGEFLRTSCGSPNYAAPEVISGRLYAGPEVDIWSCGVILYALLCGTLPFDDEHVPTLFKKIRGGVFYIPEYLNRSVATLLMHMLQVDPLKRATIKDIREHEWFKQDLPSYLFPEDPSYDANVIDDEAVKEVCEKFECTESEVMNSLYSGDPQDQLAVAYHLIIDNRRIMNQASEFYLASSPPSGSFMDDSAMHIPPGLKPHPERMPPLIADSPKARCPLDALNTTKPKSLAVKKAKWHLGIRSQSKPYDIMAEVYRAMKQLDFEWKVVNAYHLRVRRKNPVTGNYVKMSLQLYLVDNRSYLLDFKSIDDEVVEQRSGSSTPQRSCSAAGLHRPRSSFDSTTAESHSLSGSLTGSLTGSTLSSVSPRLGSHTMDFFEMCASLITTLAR
Chain of PRKAA2 PRKAB1 PRKAG1 (human) (Q9Y478 whole entry, looked up): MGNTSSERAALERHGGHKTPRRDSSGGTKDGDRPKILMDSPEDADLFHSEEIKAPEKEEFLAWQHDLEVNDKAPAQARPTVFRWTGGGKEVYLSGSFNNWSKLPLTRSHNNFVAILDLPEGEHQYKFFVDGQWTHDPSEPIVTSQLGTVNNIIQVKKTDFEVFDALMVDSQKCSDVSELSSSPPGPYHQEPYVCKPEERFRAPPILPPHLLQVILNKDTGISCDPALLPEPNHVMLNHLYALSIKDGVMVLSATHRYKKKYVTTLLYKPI

[25] = tested on: PRKD1 (human), Q15139 [R135A]; conditions: compound 10.0 µM; ATP 45 µM
[26] = biological target: PRKD2 (human) (UniProt Q9BZL6); conditions: compound 10.0 µM; ATP 155 µM
[27] = biological target: PTK2B (human) (UniProt Q14289); conditions: compound 10.0 µM; ATP 90 µM
[28] = biological target: RPS6KA2 KD1 KD2 (human) (UniProt Q15349); conditions: compound 1.0 µM; ATP 10 µM
[29] = biological target: RPS6KA4 KD1 KD2 (human) (UniProt O75676); conditions: ATP 45 µM
Chain of RPS6KA4 KD1 KD2 (human) (O75676 whole entry, looked up): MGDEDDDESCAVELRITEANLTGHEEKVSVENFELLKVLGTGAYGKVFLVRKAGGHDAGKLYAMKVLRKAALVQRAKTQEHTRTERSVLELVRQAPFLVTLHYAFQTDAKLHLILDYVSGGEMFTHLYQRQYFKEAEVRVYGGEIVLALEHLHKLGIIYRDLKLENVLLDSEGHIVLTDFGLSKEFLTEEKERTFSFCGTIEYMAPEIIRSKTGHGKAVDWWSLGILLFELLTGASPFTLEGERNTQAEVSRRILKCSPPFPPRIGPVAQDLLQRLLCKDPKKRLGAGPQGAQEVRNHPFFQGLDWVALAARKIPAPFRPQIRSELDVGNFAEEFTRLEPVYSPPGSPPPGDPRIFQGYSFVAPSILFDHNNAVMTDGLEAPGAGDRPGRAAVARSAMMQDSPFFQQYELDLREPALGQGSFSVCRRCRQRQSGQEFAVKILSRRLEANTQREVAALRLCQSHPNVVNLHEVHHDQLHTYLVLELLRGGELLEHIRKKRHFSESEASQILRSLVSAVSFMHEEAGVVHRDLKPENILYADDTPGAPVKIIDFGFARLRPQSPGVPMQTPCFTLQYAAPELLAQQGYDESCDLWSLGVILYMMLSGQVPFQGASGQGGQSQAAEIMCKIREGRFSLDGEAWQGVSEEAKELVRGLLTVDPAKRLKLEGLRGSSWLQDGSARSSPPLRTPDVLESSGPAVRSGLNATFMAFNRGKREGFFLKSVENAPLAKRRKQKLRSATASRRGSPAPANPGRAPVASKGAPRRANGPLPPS

[30] = biological target: RPS6KA5 KD1 KD2 (human) (UniProt O75582); conditions: compound 10.0 µM; ATP 90 µM
[31] = biological target: SIK1 (human) (UniProt P57059); conditions: ATP 45 µM
Chain of SIK1 (human) (P57059 whole entry, looked up): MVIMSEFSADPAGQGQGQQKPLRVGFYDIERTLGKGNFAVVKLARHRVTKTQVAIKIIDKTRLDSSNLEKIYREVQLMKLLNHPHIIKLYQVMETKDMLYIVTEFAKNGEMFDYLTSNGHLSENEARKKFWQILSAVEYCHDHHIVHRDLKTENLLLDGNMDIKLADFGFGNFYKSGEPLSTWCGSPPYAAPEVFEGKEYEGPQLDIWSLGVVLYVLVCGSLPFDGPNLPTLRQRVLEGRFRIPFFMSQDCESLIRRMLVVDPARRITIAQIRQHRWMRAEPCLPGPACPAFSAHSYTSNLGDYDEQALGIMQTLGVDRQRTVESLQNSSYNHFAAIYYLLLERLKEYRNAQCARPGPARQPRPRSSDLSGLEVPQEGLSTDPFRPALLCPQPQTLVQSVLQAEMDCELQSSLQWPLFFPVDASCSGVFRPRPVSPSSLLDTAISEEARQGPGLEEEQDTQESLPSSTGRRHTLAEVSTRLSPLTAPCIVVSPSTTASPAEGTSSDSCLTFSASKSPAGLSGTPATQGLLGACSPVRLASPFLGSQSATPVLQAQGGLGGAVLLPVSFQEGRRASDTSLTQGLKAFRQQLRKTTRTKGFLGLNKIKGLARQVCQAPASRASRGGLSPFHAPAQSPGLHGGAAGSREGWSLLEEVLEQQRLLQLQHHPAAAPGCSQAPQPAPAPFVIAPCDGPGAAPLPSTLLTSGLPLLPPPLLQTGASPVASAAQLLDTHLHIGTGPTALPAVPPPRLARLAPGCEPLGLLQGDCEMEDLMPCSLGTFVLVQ

[32] = biological target: STK17A (human) (UniProt Q9UEE5); conditions: compound 1.0 µM; ATP 10 µM
[33] = biological target: STK24 (human) (UniProt Q9Y6E0); conditions: compound 10.0 µM; ATP 15 µM
[34] = biological target: TBK1 (human) (UniProt Q9UHD2); conditions: compound 1.0 µM; ATP 155 µM
[35] = biological target: TLK2 (human) (UniProt Q86UE8); conditions: compound 10.0 µM; ATP 10 µM
[36] = biological target: ULK3 (human) (UniProt Q6PHR2); conditions: compound 1.0 µM; ATP 10 µM

COC(=O)[C@]1(O)C[C@@H]2O[C@@]1(C)n1c3ccccc3c3c4c(c5c6ccccc6n2c5c31)C(=O)NC4
residual activity [1]: 0% | residual activity [2]: 0% | residual activity [3]: 0% | residual activity ([4]; compound 1.0 µM): 27% | residual activity ([4]; compound 10.0 µM): 2% | residual activity [5]: -3% | residual activity [6]: 0% | residual activity [7]: -1% | residual activity [8]: 0% | residual activity [9]: 0% | residual activity [10]: -4% | residual activity [11]: 0% | residual activity [12]: 0% | residual activity ([13]; compound 1.0 µM): 0% | residual activity ([13]; compound 10.0 µM): 0% | residual activity ([14]; compound 1.0 µM): -1% | residual activity ([14]; compound 10.0 µM): -5% | residual activity [15]: -3% | residual activity ([16]; compound 1.0 µM): -3% | residual activity ([16]; compound 10.0 µM): -1% | residual activity ([17]; compound 1.0 µM): -12% | residual activity ([17]; compound 10.0 µM): -20% | residual activity [18]: -2% | residual activity [19]: -1% | residual activity [20]: 0% | residual activity ([21]; compound 1.0 µM): 89% | residual activity ([21]; compound 10.0 µM): 79% | residual activity ([22]; compound 1.0 µM): 0% | residual activity ([22]; compound 10.0 µM): 0% | residual activity ([23]; compound 1.0 µM): 0% | residual activity ([23]; compound 10.0 µM): -1% | residual activity ([24]; compound 1.0 µM): -5% | residual activity ([24]; compound 10.0 µM): 1% | residual activity [25]: 0% | residual activity [26]: 0% | residual activity [27]: -1% | residual activity [28]: 0% | residual activity ([29]; compound 1.0 µM): -1% | residual activity ([29]; compound 10.0 µM): 0% | residual activity [30]: 0% | residual activity ([31]; compound 1.0 µM): 0% | residual activity ([31]; compound 10.0 µM): 0% | residual activity [32]: 0% | residual activity [33]: 0% | residual activity [34]: -1% | residual activity [35]: 0% | residual activity [36]: 0%
